What is called pIC50 is the negative decadic logarithm of the IC50, by convention in mol/L. The low end stands for a high IC50, the high end for a low IC50.

From BindingDB's records for doi:10.1021/jm00051a003 (University of Washington, 1995) come the findings set out here.

This assay in a line: Tested for the binding affinity against the Delta opioid receptor in guinea pig brain using [3H]DPDPE.

Structures are written as SMILES. pIC50: −log10 of the molar value.

In the case of `Oc1ccc2c3c1OC1[C@@H](OCc4ccc5ccccc5c4)CCC4(O)C(C2)N(CC2CC2)CCC314` (stereo not given in full), the pIC50 is 7.70.

In the case of `Oc1ccc2c3c1OC1[C@H](OCc4ccc5ccccc5c4)CCC4(O)C(C2)N(CC2CC2)CCC314` (stereo not given in full), the pIC50 was 7.60.

`Oc1ccc2c3c1OC1[C@@H](OCc4cccc5ccccc45)CCC4(O)C(C2)N(CC2CC2)CCC314` (stereo not given in full): the pIC50 is 8.18. This pIC50 lies 0.58 log units higher than the previous one. As to `Oc1ccc2c3c1OC1[C@@H](OCc4ccc(-c5ccccc5)cc4)CCC4(O)C(C2)N(CC2CC2)CCC314` (stereo not given in full), the pIC50 is 7.72.

Regarding `Oc1ccc2c3c1OC1[C@@H](OCc4ccccc4)CCC4(O)C(C2)N(CC2CC2)CCC314` (stereo not given in full), the pIC50 is 8.85.

In the case of `Oc1ccc2c3c1OC1[C@H](OCc4cccc5ccccc45)CCC4(O)C(C2)N(CC2CC2)CCC314` (stereo not given in full), the pIC50 was 8.26. For the molecule `Oc1ccc2c3c1OC1[C@@H](OCc4c5ccccc5cc5ccccc45)CCC4(O)C(C2)N(CC2CC2)CCC314` (stereo not given in full), the pIC50 is 7.44. For the molecule `Oc1ccc2c3c1OC1[C@H](OCc4ccc(-c5ccccc5)cc4)CCC4(O)C(C2)N(CC2CC2)CCC314` (stereo not given in full), the pIC50 was 7.96. Against the preceding molecule, the pIC50 is 0.52 log units higher. In the case of `Oc1ccc2c3c1OC1[C@H](OCc4c5ccccc5cc5ccccc45)CCC4(O)C(C2)N(CC2CC2)CCC314` (stereo not given in full), the pIC50 is 7.32. Take `O=C(COC1CCC2(O)C3Cc4ccc(O)c5c4C2(CCN3CC2CC2)C1O5)C1[C@H]2C[C@@H]3C[C@@H](C[C@H]1C3)C2` (stereo partly drawn) [17-(cyclopropylmethyl)-4,5alpha-epoxy-3,14-dihydroxy-6beta-morphinanyl 2-adamantyl-2-oxoethylether]: the pIC50 is 7.52.
